In the supplement of paper PMC10307832:

How the values were obtained:
Assay in all cases: relative viability (nuclei count vs DMSO), 5 days (fraction); higher = more cells survive
[1] = compound: CCc1cnn2c(NCc3ccc[n+]([O-])c3)cc(N3CCCC[C@H]3CCO)nc12 [Dinaciclib] + Cc1nc(Nc2ncc(C(=O)Nc3c(C)cccc3Cl)s2)cc(N2CCN(CCO)CC2)n1 [Dasatinib] (partner 0.075 µM)
In short: (§1)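 A single step with final 0.05% Triton X-100, 1% formaldehyde and 1 ug/ml Hoechst fixed the cells and stained nuclei 5 days after treatment. Lung cancer cell lines in 1536-well plates had been treated by pin tool the day after seeding with one drug alone or a fixed anchor-drug dose plus five library-drug doses (not always all listed) in √10 steps, and nuclei were counted on 4× images. Relative viability is the ratio of nuclei in treated wells to nuclei in vehicle wells, taken as the median of duplicate plates.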

[2] = compound: CCc1cnn2c(NCc3ccc[n+]([O-])c3)cc(N3CCCC[C@H]3CCO)nc12 [Dinaciclib] + Cc1cc(Nc2cc(N3CCN(C)CC3)nc(Sc3ccc(NC(=O)C4CC4)cc3)n2)n[nH]1 [Tozasertib] (partner 0.1 µM)
In short: as §1

[3] = compound: CCc1cnn2c(NCc3ccc[n+]([O-])c3)cc(N3CCCC[C@H]3CCO)nc12 [Dinaciclib] + CC1(C)CCC(c2ccc(Cl)cc2)=C(CN2CCN(c3ccc(C(=O)NS(=O)(=O)c4ccc(N[C@H](CCN5CCOCC5)CSc5ccccc5)c(S(=O)(=O)C(F)(F)F)c4)cc3)CC2)C1 [Navitoclax] (partner 0.5 µM)
In short: as §1

[4] = compound: CCc1cnn2c(NCc3ccc[n+]([O-])c3)cc(N3CCCC[C@H]3CCO)nc12 [Dinaciclib] + Nc1ncn([C@H]2C[C@H](O)[C@@H](CO)O2)c(=O)n1 [Decitabine] (partner 2 µM)
In short: as §1

[5] = compound: CCc1cnn2c(NCc3ccc[n+]([O-])c3)cc(N3CCCC[C@H]3CCO)nc12 [Dinaciclib] + COc1cc2c(Oc3ccc(NC(=O)C4(C(=O)Nc5ccc(F)cc5)CC4)cc3F)ccnc2cc1OCCCN1CCOCC1 [Foretinib] (partner 0.25 µM)
In short: as §1

Row | Cell Line | relative viability ([1]; first compound 0.009487 µM) | relative viability ([1]; first compound 0.03 µM) | relative viability ([1]; first compound 0.09487 µM) | relative viability ([1]; first compound 0.3 µM) | relative viability ([2]; first compound 0.009487 µM) | relative viability ([2]; first compound 0.03 µM) | relative viability ([2]; first compound 0.09487 µM) | relative viability ([2]; first compound 0.3 µM) | relative viability ([3]; first compound 0.009487 µM) | relative viability ([3]; first compound 0.03 µM) | relative viability ([3]; first compound 0.09487 µM) | relative viability ([3]; first compound 0.3 µM) | relative viability ([4]; first compound 0.009487 µM) | relative viability ([4]; first compound 0.03 µM) | relative viability ([4]; first compound 0.09487 µM) | relative viability ([4]; first compound 0.3 µM) | relative viability ([5]; first compound 0.009487 µM) | relative viability ([5]; first compound 0.03 µM) | relative viability ([5]; first compound 0.09487 µM) | relative viability ([5]; first compound 0.3 µM)
1 | NCI-H1651 | 0.299 | 0.159 | 0.0523 | 0.0403 | 0.633 | 0.58 | 0.0798 | 0.0626 | 0.745 | 0.289 | 0.0312 | 0.0396 | 0.705 | 0.391 | 0.105 | 0.0596 | 0.858 | 0.683 | 0.0694 | 0.0598
2 | NCI-H1666 | 0.617 | 0.37 | 0.304 | 0.264 | 0.586 | 0.284 | 0.275 | 0.276 | 0.848 | 0.186 | 0.227 | 0.244 | 0.831 | 0.487 | 0.326 | 0.333 | 0.832 | 0.318 | 0.38 | 0.328
3 | NCI-H1734 | 0.373 | 0.122 | 0.142 | 0.119 | 0.208 | 0.13 | 0.133 | 0.111 | 0.714 | 0.122 | 0.07 | 0.0846 | 0.5 | 0.277 | 0.134 | 0.139 | 0.803 | 0.164 | 0.132 | 0.129
4 | NCI-H1755 | 0.427 | 0.194 | 0.225 | 0.191 | 0.53 | 0.401 | 0.2 | 0.234 | 1.01 | 0.596 | 0.122 | 0.123 | 0.754 | 0.733 | 0.261 | 0.239 | 0.917 | 0.516 | 0.198 | 0.196
5 | NCI-H1793 | 0.372 | 0.2 | 0.0986 | 0.13 | 0.284 | 0.13 | 0.131 | 0.103 | 0.42 | 0.17 | 0.139 | 0.134 | 0.488 | 0.206 | 0.127 | 0.149 | 0.344 | 0.171 | 0.141 | 0.143
6 | NCI-H1915 | 0.301 | 0.149 | 0.121 | 0.123 | 0.303 | 0.149 | 0.13 | 0.115 | 0.759 | 0.267 | 0.058 | 0.0578 | 0.253 | 0.24 | 0.131 | 0.12 | 0.731 | 0.193 | 0.124 | 0.173
7 | NCI-H1944 | 0.267 | 0.117 | 0.117 | 0.13 | 0.233 | 0.134 | 0.132 | 0.127 | 1.19 | 0.67 | 0.177 | 0.169 | 0.44 | 0.199 | 0.137 | 0.156 | 0.892 | 0.191 | 0.152 | 0.134
8 | NCI-H1975 | 0.483 | 0.263 | 0.0967 | 0.0711 | 0.927 | 0.416 | 0.082 | 0.071 | 1.08 | 0.143 | 0.137 | 0.128 | 0.327 | 0.176 | 0.135 | 0.143 | 0.868 | 0.185 | 0.107 | 0.099
